Measurements from patent publication US8530680B2, “System and method for controlling growth of microorganisms with brominated furanones” (Syracuse University, priority 2008, dated 2013).

Experiments:
[1] = system: C. albicans; assay: C. albicans specific growth rate in a shake flask (data not shown); assay type: cell-based, Candida albicans; details: 3 μg/mL, after 3 hours of treatment
[2] = system: C. albicans strain SC5341 gene expression; assay: DNA microarray gene expression of C. albicans after BF1 treatment; assay type: cell-based, Candida albicans; details: for Induction expression ratio: 3 μg/mL BF1, 45 minutes
Description: An overnight culture of C. albicans strain SC5341 grown in SD medium was sub-cultured in 25 mL of the same medium to an initial OD600 of 0.005 and grown till the OD600 was 1.0. The culture was diluted using fresh SD medium to a volume of 100 mL with an initial OD600 of 0.6, and it was grown till the OD600 reached 1.0, which took approximately 2 hours. Then the culture was split into two equal portions, with 3 μg/mL of BF1 added to the first one and the same amount of ethanol added to the second one to eliminate the effects of ethanol. […] Forty-five minutes after BF1 addition, the cells were harvested by centrifugation at 13,200 rpm at 4° C. for 30 sec and stored at −80° C. until RNA isolation. To lyse the cells, 1.5 mL of Trizol reagent (Invitrogen® Co., Carlsbad, Calif.) and 0.5 mL of 0.5 mm glass beads were added to the frozen tubes containing C. albicans cell pellets. The tubes were closed tightly and beaten for 30 sec at 4,800 oscillations/minute using a mini bead beater (Biospec Products Inc., Bartlesville, Okla.). The total RNA was extracted using Trizol reagent by following the manufacture's protocol. The extracted RNA was further cleaned up using an RNeasy mini-kit (QIAGEN® Inc., Valencia, Calif.), including on-column DNA digestion with RNase-free DNase I. The RNA yield was quantified by OD260 reading, and the RNA integrity was checked, using agarose gel electrophoresis. The RNA samples were sent to the DNA MicroArray Lab at the Biotechnology Research Institute, National Research Council of Canada (Montreal, Canada) to further check the integrity and DNA microarray hybridization. RNA from a control sample and that from a furanone-treated sample were hybridized to each array. A total of four DNA microarrays were used and four biological replicates were tested. The data were analyzed using Genespring GX version 7.3 (Agilent Technologies®, Santa Clara Calif.). […] Gene functions were annotated by searching the Candida Genome Database at (www.candidagenome.org).

## CCCCC1=C(Br)/C(=C/Br)OC1=O [BF1, 4-bromo-5Z-(bromomethylene)-3-butylfuran-2-one]
[1]
  reduction of specific growth rate: approximately 50%
[2]; orf19.113 CIP1
  Induction expression ratio: 3.17
[2]; orf19.1167
  Induction expression ratio: 1.65
[2]; orf19.1237 ARO9
  Induction expression ratio: 1.87
[2]; orf19.125 EBP1
  Induction expression ratio: 13.87
[2]; orf19.1286
  Induction expression ratio: 1.97
[2]; orf19.1421 DAL3
  Induction expression ratio: 1.58
[2]; orf19.1783 YOR1
  Induction expression ratio: 1.78
[2]; orf19.2175 (CPD1), 3 μg/mL BF1
  induction of gene CPD1 in DNA microarray: 12.94 fold
[2]; orf19.2175
  Induction expression ratio: 10.94
[2]; orf19.2262
  Induction expression ratio: 2.68
[2]; orf19.23 RTA3
  Induction expression ratio: 5.01
[2]; orf19.2396 IFR2
  Induction expression ratio: 2.05
[2]; orf19.2693
  Induction expression ratio: 3.97
[2]; orf19.2825 DRE2
  Induction expression ratio: 1.69
[2]; orf19.3131 OYE32
  Induction expression ratio: 12.89
[2]; orf19.3139
  Induction expression ratio: 8.82
[2]; orf19.320
  Induction expression ratio: 14.98
[2]; orf19.3234 OYE22
  Induction expression ratio: 4.00
[2]; orf19.3340 SOD2
  Induction expression ratio: 1.72
[2]; orf19.3433 OYE23
  Induction expression ratio: 20.04
[2]; orf19.3443 OYE2
  Induction expression ratio: 3.30
[2]; orf19.3707 YHB1
  Induction expression ratio: 2.65
[2]; orf19.4940 HIP1
  Induction expression ratio: 2.57
[2]; orf19.5059 GCS1
  Induction expression ratio: 1.96
[2]; orf19.5604 MDR1
  Induction expression ratio: 5.36
[2]; orf19.5992 WOR2
  Induction expression ratio: 1.54
[2]; orf19.6059 TTR2
  Induction expression ratio: 1.80
[2]; orf19.6275
  Induction expression ratio: 1.94
[2]; orf19.6869
  Induction expression ratio: 4.21
[2]; orf19.7306
  Induction expression ratio: 2.87
[2]; orf19.7531
  Induction expression ratio: 2.53
[2]; orf19.896 CHK1
  Induction expression ratio: 1.54
[2]; orf19.93
  Induction expression ratio: 1.53
[2]; repressed gene orf19.1097 ALS4
  Induction expression ratio: 0.42
[2]; repressed gene orf19.1344
  Induction expression ratio: 0.60
[2]; repressed gene orf19.270
  Induction expression ratio: 0.47
[2]; repressed gene orf19.2896 SOU1
  Induction expression ratio: 0.60
[2]; repressed gene orf19.2959.1
  Induction expression ratio: 0.64
[2]; repressed gene orf19.3066 ENG1
  Induction expression ratio: 0.57
[2]; repressed gene orf19.3629 DSE1
  Induction expression ratio: 0.66
[2]; repressed gene orf19.3794 CSR1
  Induction expression ratio: 0.60
[2]; repressed gene orf19.4337 ESBP6
  Induction expression ratio: 0.65
[2]; repressed gene orf19.4737 TPO3
  Induction expression ratio: 0.60
[2]; repressed gene orf19.5170 ENA21
  Induction expression ratio: 0.61
[2]; repressed gene orf19.5193 FMA1
  Induction expression ratio: 0.61
[2]; repressed gene orf19.5267
  Induction expression ratio: 0.56
[2]; repressed gene orf19.5565
  Induction expression ratio: 0.43
[2]; repressed gene orf19.6073 HMX1
  Induction expression ratio: 0.59
[2]; repressed gene orf19.6077
  Induction expression ratio: 0.51
[2]; repressed gene orf19.6245
  Induction expression ratio: 0.67
[2]; repressed gene orf19.716
  Induction expression ratio: 0.51
[2]; repressed gene orf19.742 ALD6
  Induction expression ratio: 0.33
[2]; repressed gene orf19.7502
  Induction expression ratio: 0.67
[2]; repressed gene orf19.7586 CHT3
  Induction expression ratio: 0.66
